Test results as given in the supplement of paper PMC11451515.

System: P12-Ichikawa
Assay: cell viability relative to DMSO control; higher = less cytotoxic
Conditions: 48 h
Procedure, shortened: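 In 1536-well plates, 5 μl of leukemia cells were seeded per well: 500 cells/well for NOMO1 or SEM and 1000 cells/well for P12-Ichikawa. Each line had first been adapted for at least four passages in each medium. Library compounds in DMSO were pin-dosed at 11 threefold concentrations between 47 μM and 0.79 nM, and CellTiter-Glo One luminescence was read after 48 h at 37°C. Viability is a per-plate percentage relative to DMSO wells, with cell-free wells as background.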

[1] = HPLM + 10% dialyzed FBS, 0.000781 µM
[2] = HPLM + 10% dialyzed FBS, 0.00234 µM
[3] = HPLM + 10% dialyzed FBS, 0.00702 µM
[4] = HPLM + 10% dialyzed FBS, 0.0211 µM
[5] = HPLM + 10% dialyzed FBS, 0.0632 µM
[6] = HPLM + 10% dialyzed FBS, 0.19 µM
[7] = HPLM + 10% dialyzed FBS, 0.569 µM
[8] = HPLM + 10% dialyzed FBS, 1.71 µM
[9] = HPLM + 10% dialyzed FBS, 5.12 µM
[10] = HPLM + 10% dialyzed FBS, 15.4 µM
[11] = HPLM + 10% dialyzed FBS, 46.1 µM
[12] = RPMI 5 mM glucose + 10% FBS, 0.000781 µM
[13] = RPMI 5 mM glucose + 10% FBS, 0.00234 µM
[14] = RPMI 5 mM glucose + 10% FBS, 0.00702 µM
[15] = RPMI 5 mM glucose + 10% FBS, 0.0211 µM
[16] = RPMI 5 mM glucose + 10% FBS, 0.0632 µM
[17] = RPMI 5 mM glucose + 10% FBS, 0.19 µM
[18] = RPMI 5 mM glucose + 10% FBS, 0.569 µM
[19] = RPMI 5 mM glucose + 10% FBS, 1.71 µM
[20] = RPMI 5 mM glucose + 10% FBS, 5.12 µM
[21] = RPMI 5 mM glucose + 10% FBS, 15.4 µM
[22] = RPMI 5 mM glucose + 10% FBS, 46.1 µM
[23] = RPMI 5 mM glucose + 10% dialyzed FBS, 0.000781 µM
[24] = RPMI 5 mM glucose + 10% dialyzed FBS, 0.00234 µM
[25] = RPMI 5 mM glucose + 10% dialyzed FBS, 0.00702 µM
[26] = RPMI 5 mM glucose + 10% dialyzed FBS, 0.0211 µM
[27] = RPMI 5 mM glucose + 10% dialyzed FBS, 0.0632 µM
[28] = RPMI 5 mM glucose + 10% dialyzed FBS, 0.19 µM
[29] = RPMI 5 mM glucose + 10% dialyzed FBS, 0.569 µM
[30] = RPMI 5 mM glucose + 10% dialyzed FBS, 1.71 µM
[31] = RPMI 5 mM glucose + 10% dialyzed FBS, 5.12 µM
[32] = RPMI 5 mM glucose + 10% dialyzed FBS, 15.4 µM
[33] = RPMI 5 mM glucose + 10% dialyzed FBS, 46.1 µM

Row | Compound | cell viability [1] [%] | cell viability [2] [%] | cell viability [3] [%] | cell viability [4] [%] | cell viability [5] [%] | cell viability [6] [%] | cell viability [7] [%] | cell viability [8] [%] | cell viability [9] [%] | cell viability [10] [%] | cell viability [11] [%] | cell viability [12] [%] | cell viability [13] [%] | cell viability [14] [%] | cell viability [15] [%] | cell viability [16] [%] | cell viability [17] [%] | cell viability [18] [%] | cell viability [19] [%] | cell viability [20] [%] | cell viability [21] [%] | cell viability [22] [%] | cell viability [23] [%] | cell viability [24] [%] | cell viability [25] [%] | cell viability [26] [%] | cell viability [27] [%] | cell viability [28] [%] | cell viability [29] [%] | cell viability [30] [%] | cell viability [31] [%] | cell viability [32] [%] | cell viability [33] [%]
1 | CC[C@H](NC1=C2N=C[NH]C2=NC=N1)C/3=N/C4=C(C(=CC=C4)F)C(=O)N3C5=CC=CC=C5 | 125 | 118 | 122 | 131 | 133 | 120 | 115 | 118 | 101 | 88.9 | 56.3 | 114 | 115 | 118 | 120 | 128 | 104 | 86.6 | 94.7 | 78.2 | 61.9 | 50.2 | 124 | 123 | 125 | 132 | 131 | 115 | 99.7 | 98.7 | 91.7 | 70.7 | 51.9
2 | N[S+]([O-])(=O)C1=C(Cl)C=C2\N=C/N[S+]([O-])(=O)C2=C1 | 101 | 100 | 102 | 97.5 | 106 | 108 | 108 | 119 | 110 | 106 | 109 | 97.3 | 106 | 107 | 113 | 117 | 114 | 112 | 122 | 115 | 120 | 122 | 101 | 96.2 | 111 | 115 | 114 | 110 | 114 | 100 | 115 | 115 | 109
3 | CC[C@]12CC[C@H]3[C@@H](CCC/4=C/C(=O)CC[C@H]34)[C@@H]1\C=C/[C@@]2(O)C#C | 109 | 124 | 124 | 125 | 132 | 129 | 128 | 120 | 122 | 123 | 119 |  |  |  |  |  |  |  |  |  |  |  | 106 | 110 | 121 | 115 | 119 | 114 | 124 | 123 | 118 | 113 | 116
4 | Cc1c(C)n(Cc2ccc(-c3ccccc3C(=O)O)cc2)c2ccc(C(=O)N[C@@H](C)c3ccc([N+](=O)[O-])cc3)cc12 | 103 | 105 | 102 | 107 | 103 | 109 | 109 | 120 | 114 | 25.8 | 33.6 | 101 | 104 | 102 | 96.8 | 112 | 110 | 114 | 102 | 113 | 25.2 | 25.1 | 99.6 | 97.5 | 106 | 105 | 106 | 101 | 113 | 108 | 114 | 25.5 | 20
5 | CNCC(O)c1ccc(O)cc1 (configuration not stated) | 103 | 106 | 113 | 113 | 124 | 122 | 118 | 118 | 120 | 119 | 120 | 99.8 | 116 | 114 | 121 | 124 | 127 | 122 | 129 | 123 | 131 | 107 | 99.4 | 110 | 115 | 119 | 114 | 113 | 118 | 113 | 123 | 121 | 114
6 | O=C(Nc1cccc(C(F)(F)F)c1)Nc1cc([S+](=O)([O-])NC2CC2)ccc1-c1ccsc1 | 127 | 109 | 115 | 111 | 112 | 114 | 110 | 110 | 108 | 104 | 76.9 | 120 | 118 | 119 | 112 | 123 | 118 | 116 | 119 | 112 | 110 | 69.8 | 121 | 116 | 107 | 121 | 117 | 119 | 105 | 94.1 | 107 | 103 | 50.1
7 | O=C(Nc1cc(Cl)cc2c1[nH]c1cnccc12)c1cccnc1 | 116 | 121 | 123 | 121 | 121 | 122 | 127 | 115 | 121 | 113 | 106 | 124 | 118 | 118 | 129 | 119 | 116 | 117 | 118 | 114 | 114 | 109 |  |  |  |  |  |  |  |  |  |  | 
8 | O=C(O)Cn1nnc(-c2cc(N3CCC(Oc4cc(F)ccc4Br)CC3)no2)n1 | 97.6 | 114 | 107 | 114 | 116 | 123 | 105 | 112 | 113 | 12 | 11 | 103 | 112 | 109 | 118 | 118 | 122 | 112 | 118 | 112 | 18 | 13.4 | 93.2 | 117 | 111 | 115 | 118 | 116 | 113 | 116 | 114 | 45.6 | 17.9
